In patent US20260193271A1, “PAN-KRAS INHIBITOR COMPOUND” (ADLAI NORTYE BIOPHARMA CO., LTD., priority 2022, published 2026):

Tested on: AsPC-1 (G12D)
Experiment: In vitro cell proliferation inhibition test (CellTiter-Glo), AsPC-1
Type: cell-based
Settings: AsPC-1 pancreas cell line, KRAS (p.G12D), 72 h co-incubation
Text: Test Example 1: In Vitro Cell Proliferation Inhibition Test
Due to the diversity of RAS mutations and in order to evaluate the activity of compounds in different RAS mutation cell lines, we selected KRAS^WT, KRAS^G12C, KRAS^G12D, KRAS^G12V and BRAF mutation cell lines (see the table below) for in vitro activity evaluation and screening of compounds.
Protocol: CellTiter-Glo® Cell Luminescent Viability Assay (Promega)
According to the doubling time of different cell lines, different numbers of cells (1000-5000 cells/well) were seeded in 96-well plates containing 180 μl of corresponding culture medium and cultured overnight in a cell culture incubator at 37° C. with 5% CO2. On the second day, the test compound was pre-diluted 3-fold with culture medium, with the highest concentration being 100 μM, for a total of 10 concentration gradients; then 20 μl of culture medium containing different concentrations of the compound was added to the cells in the 96-well plate to ensure that the final concentration of the compound was up to 10 μM, with 10 concentration gradients of 3-fold dilution. After the cells and compounds were co-incubated for 72 h, the 96-well plate was removed from the incubator and equilibrated at room temperature for 30 min. Then, 25 μl of CellTiter-Glo® Reagent was added to each well and mixed thoroughly. The mixture was incubated at room temperature for 10 min, and then 100 μl of the sample was transferred to a white 96-well plate (OptiPlate™-96, PerkinElmer). The […] signal value was read using a multi-function microplate reader (SpectraMax® i3x, Molecular devices). The signal values were then standardized, and the curve was fitted using a four-parameter regression equation to calculate the half maximal inhibitory concentration (IC50) of the compound on the cell line.

| Structure (SMILES) | IC50 |
| --- | --- |
| CCn1c(-c2cc(-c3ccc(CN4CCOCC4)cc3)cnc2C(C)OC)c2c3cc(ccc31)-c1csc(n1)CC(NC(=O)C1C(C)C1C)C(=O)N1CCCC(N1)C(=O)OCC(C)(C)C2 [Compound 1′, (1r,2R,3S)-N-((6^3S,4S,Z)-1^1-ethyl-1^2-(2-((S)-1-methoxyethyl)-5-(4-(morpholinomethyl)phenyl)pyridin-3-yl)-10,10-dimethyl-5,7-dioxo-6^1,6^2,6^3,6^4,6^5,6^6-hexahydro-1^1H-8-oxa-2(4,2)-thiazola-1(5,3)-indola-6(1,3)-pyridazinacycloundecaphane-4-yl)-2,3-dimethylcyclopropane-1-carboxamide] | 4770 nM |
| CCn1c(-c2cc(-c3ccc4c(c3)CCN(C)C4)cnc2C(C)OC)c2c3cc(ccc31)-c1csc(n1)CC(NC(=O)C1C(C)C1C)C(=O)N1CCCC(N1)C(=O)OCC(C)(C)C2 [Compound 3′, (1r,2R,3S)-N-((6^3S,4S,Z)-1^1-ethyl-1^2-(2-((S)-1-methoxyethyl)-5-(2-methyl-1,2,3,4-tetrahydroisoquinolin-6-yl)pyridin-3-yl)-10,10-dimethyl-5,7-dioxo-6^1,6^2,6^3,6^4,6^5,6^6-hexahydro-1^1H-8-oxa-2(4,2)-thiazola-1(5,3)-indola-6(1,3)-pyridazinacycloundecaphane-4-yl)-2,3-dimethylcyclopropane-1-carboxamide] | 1230 nM |
| CCn1c(-c2cc(-c3cccc(CN(C)C)c3)cnc2[C@H](C)OC)c2c3cc(ccc31)-c1csc(n1)C[C@H](NC(=O)[C@H]1[C@H](C)[C@@H]1C)C(=O)N1CCC[C@H](N1)C(=O)OCC(C)(C)C2 [Compound 4′, (1r,2R,3S)-N-((6^3S,4S,Z)-1^2-(5-(3-((dimethylamino)methyl)phenyl)-2-((S)-1-methoxyethyl)pyridin-3-yl)-1^1-ethyl-10,10-dimethyl-5,7-dioxo-6^1,6^2,6^3,6^4,6^5,6^6-hexahydro-1^1H-8-oxa-2(4,2)-thiazola-1(5,3)-indola-6(1,3)-pyridazinacycloundecaphane-4-yl)-2,3-dimethylcyclopropane-1-carboxamide] | 646 nM |
| CCn1c(-c2cc(-c3ccc(CN4CCOCC4)nc3)cnc2C(C)OC)c2c3cc(ccc31)-c1csc(n1)CC(NC(=O)C1CC1C)C(=O)N1CCCC(N1)C(=O)OCC(C)(C)C2 [Compound 5′, (1S,2S)-N-((6^3S,4S,Z)-1^1-ethyl-1^2-(6-((S)-1-methoxyethyl)-6′-(morpholinomethyl)-[3,3′-bipyridin]-5-yl)-10,10-dimethyl-5,7-dioxo-6^1,6^2,6^3,6^4,6^5,6^6-hexahydro-1^1H-8-oxa-2(4,2)-thiazola-1(5,3)-indola-6(1,3)-pyridazinacycloundecaphane-4-yl)-2-methylcyclopropane-1-carboxamide] | 99 nM |
| CCn1c(-c2cc(-c3ccc(CN4CCN(C)CC4)cc3)cnc2[C@H](C)OC)c2c3cc(ccc31)-c1csc(n1)C[C@H](NC(=O)[C@H]1C[C@@H]1C)C(=O)N1CCC[C@H](N1)C(=O)OCC(C)(C)C2 [Compound 8′, (1S,2S)-N-((6^3S,4S,Z)-1^1-ethyl-1^2-(2-((S)-1-methoxyethyl)-5-(4-((4-methylpiperazin-1-yl)methyl)phenyl)pyridin-3-yl)-10,10-dimethyl-5,7-dioxo-6^1,6^2,6^3,6^4,6^5,6^6-hexahydro-1^1H-8-oxa-2(4,2)-thiazola-1(5,3)-indola-6(1,3)-pyridazinacycloundecaphane-4-yl)-2-methylcyclopropane-1-carboxamide] | 236 nM |
| CCn1c(-c2cc(-c3cccc(CN4CCOCC4)c3)cnc2C(C)OC)c2c3cc(ccc31)-c1csc(n1)CC(NC(=O)C1CC1C)C(=O)N1CCCC(N1)C(=O)OCC(C)(C)C2 [Compound 9′, (1S,2S)-N-((6^3S,4S,Z)-1^1-ethyl-1^2-(2-((S)-1-methoxyethyl)-5-(3-(morpholinomethyl)phenyl)pyridin-3-yl)-10,10-dimethyl-5,7-dioxo-6^1,6^2,6^3,6^4,6^5,6^6-hexahydro-1^1H-8-oxa-2(4,2)-thiazola-1(5,3)-indola-6(1,3)-pyridazinacycloundecaphane-4-yl)-2-methylcyclopropane-1-carboxamide] | 836 nM |
| CCn1c(-c2cc(-c3ccc4c(c3)CN(C)CC4)cnc2C(C)OC)c2c3cc(ccc31)-c1csc(n1)CC(NC(=O)C1CC1C)C(=O)N1CCCC(N1)C(=O)OCC(C)(C)C2 [Compound 10′, (1S,2S)-N-((6^3S,4S,Z)-1^1-ethyl-1^2-(2-((S)-1-methoxyethyl)-5-(2-methyl-1,2,3,4-tetrahydroisoquinolin-7-yl)pyridin-3-yl)-10,10-dimethyl-5,7-dioxo-6^1,6^2,6^3,6^4,6^5,6^6-hexahydro-1^1H-8-oxa-2(4,2)-thiazola-1(5,3)-indola-6(1,3)-pyridazinacycloundecaphane-4-yl)-2-methylcyclopropane-1-carboxamide] | 1800 nM |
| CCn1c(-c2cc(-c3nnc(C)n3C)cnc2C(C)OC)c2c3cc(ccc31)-c1csc(n1)CC(NC(=O)C1CC1C)C(=O)N1CCCC(N1)C(=O)OCC(C)(C)C2 [Compound 20′, (1S,2S)-N-((6^3S,4S,Z)-1^2-(5-(4,5-dimethyl-4H-1,2,4-triazol-3-yl)-2-((S)-1-methoxyethyl)pyridin-3-yl)-1^1-ethyl-10,10-dimethyl-5,7-dioxo-6^1,6^2,6^3,6^4,6^5,6^6-hexahydro-1^1H-8-oxa-2(4,2)-thiazola-1(5,3)-indola-6(1,3)-pyridazinacycloundecaphane-4-yl)-2-methylcyclopropane-1-carboxamide] | 87 nM |

The remaining lines, values ahead:

| IC50 | Structure (SMILES) |
| --- | --- |
| 1460 nM | CCn1c(-c2cc(-c3ccc(CN4CCC(F)C4)cc3)cnc2C(C)OC)c2c3cc(ccc31)-c1csc(n1)CC(NC(=O)C1CC1C)C(=O)N1CCCC(N1)C(=O)OCC(C)(C)C2 [Compound 6′, (1S,2S)-N-((6^3S,4S,Z)-1^1-ethyl-1^2-(5-(4-(((R)-3-fluoropyrrolidin-1-yl)methyl)phenyl)-2-((S)-1-methoxyethyl)pyridin-3-yl)-10,10-dimethyl-5,7-dioxo-6^1,6^2,6^3,6^4,6^5,6^6-hexahydro-1^1H-8-oxa-2(4,2)-thiazola-1(5,3)-indola-6(1,3)-pyridazinacycloundecaphane-4-yl)-2-methylcyclopropane-1-carboxamide] |
| > 10000 nM | CCn1c(-c2cc(-c3ccc(CN4CCC(F)(F)CC4)cc3)cnc2C(C)OC)c2c3cc(ccc31)-c1csc(n1)CC(NC(=O)C1CC1C)C(=O)N1CCCC(N1)C(=O)OCC(C)(C)C2 [Compound 7′, (1S,2S)-N-((6^3S,4S,Z)-1^2-(5-(4-((4,4-difluoropiperidin-1-yl)methyl)phenyl)-2-((S)-1-methoxyethyl)pyridin-3-yl)-1^1-ethyl-10,10-dimethyl-5,7-dioxo-6^1,6^2,6^3,6^4,6^5,6^6-hexahydro-1^1H-8-oxa-2(4,2)-thiazola-1(5,3)-indola-6(1,3)-pyridazinacycloundecaphane-4-yl)-2-methylcyclopropane-1-carboxamide] |
| 1770 nM | CCn1c(-c2cc(-c3nc(C)no3)cnc2[C@H](C)OC)c2c3cc(ccc31)-c1csc(n1)C[C@H](NC(=O)[C@H]1C[C@@H]1C)C(=O)N1CCC[C@H](N1)C(=O)OCC(C)(C)C2 [Compound 21′, (1S,2S)-N-((6^3S,4S,Z)-1^1-ethyl-1^2-(2-((S)-1-methoxyethyl)-5-(3-methyl-1,2,4-oxadiazol-5-yl)pyridin-3-yl)-10,10-dimethyl-5,7-dioxo-6^1,6^2,6^3,6^4,6^5,6^6-hexahydro-1^1H-8-oxa-2(4,2)-thiazola-1(5,3)-indola-6(1,3)-pyridazinacycloundecaphane-4-yl)-2-methylcyclopropane-1-carboxamide] |
